Source: the supplement of paper PMC10307832

Tests used:
Assay in all cases: relative viability (nuclei count vs DMSO), 5 days (fraction); higher = more cells survive
KIN001-266 + Alpelisib = compound: CCN1CCC(CC1)N2C=C(N=N2)CNC3=CC4=C(C(=CN=C4C(=C3)Cl)C#N)NC5=CC(=C(C=C5)F)Cl [KIN001-266] + Cc1nc(NC(=O)N2CCC[C@H]2C(N)=O)sc1-c1ccnc(C(C)(C)C(F)(F)F)c1 [Alpelisib] (partner 2 µM)
In short: (§1)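 Dosing by pin tool came one day after lung cancer cell lines were seeded in 1536-well plates, using either one drug or a fixed anchor-drug dose plus five library-drug doses (not always all listed) in √10 steps. After 5 days, nuclei were counted on 4× images. Relative viability is treated-well nuclei count divided by vehicle-well nuclei count, and values are medians of duplicate plates.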

KIN001-266 + Olaparib = compound: CCN1CCC(CC1)N2C=C(N=N2)CNC3=CC4=C(C(=CN=C4C(=C3)Cl)C#N)NC5=CC(=C(C=C5)F)Cl [KIN001-266] + O=C(c1cc(Cc2n[nH]c(=O)c3ccccc23)ccc1F)N1CCN(C(=O)C2CC2)CC1 [Olaparib] (partner 8 µM)
In short: as §1

KIN001-266 + Foretinib = compound: CCN1CCC(CC1)N2C=C(N=N2)CNC3=CC4=C(C(=CN=C4C(=C3)Cl)C#N)NC5=CC(=C(C=C5)F)Cl [KIN001-266] + COc1cc2c(Oc3ccc(NC(=O)C4(C(=O)Nc5ccc(F)cc5)CC4)cc3F)ccnc2cc1OCCCN1CCOCC1 [Foretinib] (partner 0.25 µM)
In short: as §1

KIN001-266 + Pemetrexed = compound: CCN1CCC(CC1)N2C=C(N=N2)CNC3=CC4=C(C(=CN=C4C(=C3)Cl)C#N)NC5=CC(=C(C=C5)F)Cl [KIN001-266] + Nc1nc2[nH]cc(CCc3ccc(C(=O)N[C@@H](CCC(=O)O)C(=O)O)cc3)c2c(=O)[nH]1 [Pemetrexed] (partner 0.2 µM)
In short: as §1

Cell Line	relative viability (KIN001-266 + Alpelisib; first compound 0.08 µM)	relative viability (KIN001-266 + Alpelisib; first compound 0.253 µM)	relative viability (KIN001-266 + Alpelisib; first compound 0.8 µM)	relative viability (KIN001-266 + Alpelisib; first compound 2.53 µM)	relative viability (KIN001-266 + Alpelisib; first compound 8 µM)	relative viability (KIN001-266 + Olaparib; first compound 0.08 µM)	relative viability (KIN001-266 + Olaparib; first compound 0.253 µM)	relative viability (KIN001-266 + Olaparib; first compound 0.8 µM)	relative viability (KIN001-266 + Olaparib; first compound 2.53 µM)	relative viability (KIN001-266 + Olaparib; first compound 8 µM)	relative viability (KIN001-266 + Foretinib; first compound 0.08 µM)	relative viability (KIN001-266 + Foretinib; first compound 0.253 µM)	relative viability (KIN001-266 + Foretinib; first compound 0.8 µM)	relative viability (KIN001-266 + Foretinib; first compound 2.53 µM)	relative viability (KIN001-266 + Foretinib; first compound 8 µM)	relative viability (KIN001-266 + Pemetrexed; first compound 0.08 µM)	relative viability (KIN001-266 + Pemetrexed; first compound 0.253 µM)	relative viability (KIN001-266 + Pemetrexed; first compound 0.8 µM)	relative viability (KIN001-266 + Pemetrexed; first compound 2.53 µM)	relative viability (KIN001-266 + Pemetrexed; first compound 8 µM)
NCI-H1993	0.664	0.682	0.692	0.642	0.634	1.04	0.937	1.16	0.887	0.73	0.86	0.777	0.758	0.749	0.675	0.562	0.554	0.637	0.586	0.596
NCI-H838	1.04	0.998	1.05	0.966	0.694	0.775	0.811	0.764	0.68	0.471	1.03	1.09	1.06	0.928	0.717	0.242	0.249	0.26	0.249	0.236
NCI-H1437	0.997	1.06	0.961	0.858	0.495	0.644	0.649	0.666	0.582	0.377	1.21	1.28	1.26	1.35	1.04	0.32	0.329	0.329	0.3	0.241
NCI-H2170	0.81	0.771	0.776	0.734	0.786	0.634	0.548	0.541	0.515	0.416	0.984	1.03	1.01	0.987	0.976	0.256	0.256	0.248	0.248	0.25
LCLC-103H	0.906	0.975	0.951	0.972	0.808	0.727	0.762	0.722	0.742	0.756	0.837	0.716	0.987	0.772	0.726	0.471	0.482	0.47	0.426	0.514
NCI-H441	0.75	0.822	0.73	0.793	0.496	0.504	0.645	0.562	0.455	0.444	1.04	0.889	1.02	0.781	0.689	0.251	0.253	0.233	0.261	0.248
SK-LU-1	1.24	1.07	1.14	0.927	0.582	0.557	0.427	0.489	0.373	0.416	0.844	0.824	0.84	0.814	0.486	1.03	1	1.06	0.962	0.714
BEN	0.841	1.08	1.03	0.997	0.916	1	0.988	1.12	1.17	0.977	0.708	0.88	0.755	0.407	0.691	0.982	0.776	0.919	0.68	0.744
LC-2-ad	0.897	0.776	0.918	0.783	0.869	0.706	0.727	0.664	0.693	0.635	0.964	1	0.904	0.972	0.787	0.288	0.301	0.272	0.271	0.275
COR-L23	0.735	0.804	0.814	0.736	0.404	0.372	0.367	0.345	0.293	0.294	0.905	0.944	0.869	0.933	0.776	0.204	0.219	0.206	0.191	0.209
RERF-LC-KJ	0.863	0.785	0.856	0.832	0.569	0.974	0.952	0.858	0.762	0.649	0.882	0.873	0.837	0.837	0.757	0.475	0.507	0.475	0.499	0.467
NCI-H1915	1.05	1.06	1.01	1.04	0.97	0.253	0.25	0.241	0.234	0.211	1.14	1.06	1.07	1.13	1.11	0.507	0.466	0.504	0.469	0.575
NCI-H596	0.492	0.445	0.431	0.534	0.398	0.744	0.723	0.662	0.712	0.756	0.963	0.986	0.901	0.775	0.737	0.451	0.481	0.498	0.403	0.477
NCI-H2009	1.21	1.17	1.19	1.03	0.983	0.721	0.667	0.657	0.65	0.321	1.15	1.16	1.28	1.23	1.03	1.03	1.04	1.01	0.996	0.903
NCI-H2126	0.77	0.76	0.774	0.703	0.76	0.896	0.925	0.943	0.848	0.842	1.12	1.18	1.15	1.26	1.15	0.713	0.73	0.758	0.687	0.619
LXF-289	1.05	1.03	1.01	1.05	1.03	1.01	1.02	1.03	1.01	1.03	0.936	0.945	0.963	0.997	1.07	0.839	0.861	0.855	0.771	1.01

Cell Line	relative viability (KIN001-266 + Alpelisib; first compound 0.08 µM)	relative viability (KIN001-266 + Alpelisib; first compound 0.253 µM)	relative viability (KIN001-266 + Alpelisib; first compound 0.8 µM)	relative viability (KIN001-266 + Alpelisib; first compound 2.53 µM)	relative viability (KIN001-266 + Alpelisib; first compound 8 µM)	relative viability (KIN001-266 + Olaparib; first compound 0.08 µM)	relative viability (KIN001-266 + Olaparib; first compound 0.253 µM)	relative viability (KIN001-266 + Olaparib; first compound 0.8 µM)	relative viability (KIN001-266 + Olaparib; first compound 2.53 µM)	relative viability (KIN001-266 + Olaparib; first compound 8 µM)	relative viability (KIN001-266 + Foretinib; first compound 0.08 µM)	relative viability (KIN001-266 + Foretinib; first compound 0.253 µM)	relative viability (KIN001-266 + Foretinib; first compound 0.8 µM)	relative viability (KIN001-266 + Foretinib; first compound 2.53 µM)	relative viability (KIN001-266 + Foretinib; first compound 8 µM)	relative viability (KIN001-266 + Pemetrexed; first compound 0.08 µM)	relative viability (KIN001-266 + Pemetrexed; first compound 0.253 µM)	relative viability (KIN001-266 + Pemetrexed; first compound 0.8 µM)	relative viability (KIN001-266 + Pemetrexed; first compound 2.53 µM)	relative viability (KIN001-266 + Pemetrexed; first compound 8 µM)
PC-14	0.927	0.923	0.918	0.906	0.663	0.24	0.354	0.251	0.312	0.141	0.907	1.04	0.743	0.979	0.503	0.161	0.133	0.164	0.113	0.186
HOP-62	1.09	1.21	0.967	1.02	0.84	0.5	0.475	0.381	0.46	0.319	0.96	1.11	1.15	1.13	1.13	0.313	0.304	0.469	0.353	0.381
NCI-H358	0.825	0.774	0.981	0.831	0.43	0.6	0.556	0.58	0.458	0.325	0.728	0.734	0.629	0.631	0.397	0.187	0.163	0.178	0.158	0.146
SK-MES-1	0.943	0.813	0.845	0.872	0.76	0.783	0.651	0.73	0.492	0.492	0.845	0.884	0.828	0.885	0.828	0.873	0.912	0.903	0.833	0.79
NCI-H1666	0.985	0.999	0.901	0.887	0.696	0.77	0.754	0.607	0.739	0.73	0.954	0.95	0.938	0.92	0.892	0.861	0.857	0.881	0.773	0.856
NCI-H1355	0.854	0.783	0.912	0.737	0.764	0.765	0.769	0.699	0.716	0.731	0.922	0.956	0.924	0.918	0.88	0.987	0.995	1.1	1	1.01
HCC-827	0.953	1.04		0.948	0.648	0.577	0.602	0.557	0.585	0.528	1.04	1.09	0.944	0.907	0.809	0.264	0.259	0.166	0.214	0.23
HARA	0.771	0.77	0.835	0.847	0.59	0.798	0.762	0.806	0.559	0.467	0.814	0.884	0.878	0.858	0.821	0.289	0.276	0.256	0.242	0.206
HCC-366	0.495	0.492	0.583	0.374	0.364	0.403	0.339	0.271	0.3	0.227	0.961	0.955	0.916	0.905	0.851	0.207	0.157	0.144	0.184	0.24
NCI-H322M	0.648	0.87	0.8	0.694	0.689	0.802	0.737	0.764	0.72	0.698	0.942	0.96	1.03	0.962	0.864	0.598	0.611	0.628	0.461	0.666
NCI-H2347	1.03	1.01	1.03	0.996	0.578	0.619	0.593	0.507	0.568	0.479	1.04	0.622	0.746	0.844	0.632	0.455	0.463	0.43	0.452	0.433
NCI-H1975	0.696	0.75	0.667	0.665	0.597	0.823	0.81	0.791	0.734	0.69	0.972	0.96	0.966	1.05	1.04	0.314	0.305	0.297	0.285	0.29
UMC-11	0.927	0.931	1.11	0.952	0.604	0.351	0.515	0.398	0.31	0.319	1.08	1.07	1.12	0.945	0.684	0.773	0.728	0.757	0.757	0.707
A-427	1.12	1.05	1.04	1.02	0.998	0.723	0.789	0.726	0.615	0.639	1.06	1.07	0.983	0.992	0.971	1.01	0.96	1.04	0.881	0.95
LCLC-97TM1	0.268	0.217	0.236	0.222	0.236	0.302	0.295	0.406		0.167	0.983	0.914	0.903	0.888	0.909	0.193	0.191	0.171		0.227
